Measured values from paper PMC11109052, “Metabolism characterization and toxicity of N-hydap, a marine candidate drug for lung cancer therapy by LC–MS method” (Natural Products and Bioprospecting, 2024).

Tests used:
[1] = Stability in KPI solution (pH 7.4); type: physicochemical; details: for stability, Accuracy (Bias, %): KPI
Protocol: To verify the feasibility and reliability of the established method, studies on the linearity, accuracy, precision, and stability of N-hydap in potassium phosphate buffer (KPI, pH 7.4, were prepared by mixing KH2PO4 and K2HPO4 in corresponding proportions, and then adding NaOH and H3PO4 to pH 7.4), plasma, and tissue homogenate were carried out. The peak area ratios (analyte/IS) were plotted against the concentrations of the analytes prepared to obtain the calibration curves. Least squares linear regression analysis was used to determine the slopes, intercepts, and determination coefficients (R^2) which should be 0.99 or above of calibration curves. The standard curve equations were determined as y = 0.0001512x + 0.04394 (R^2 = 0.9980) for KPI, y = 0.001579x − 0.09233 (R^2 = 0.9923) for plasma, and y = 0.002271x + 0.03542 (R^2 = 0.9978) for tissue homogenate (Supplementary Fig. 1A–C).
(§1) The stability of the KPI solution was examined after storage at 4 °C for 24 h and incubation at 37 °C for 4 h, which was conducted using the QC samples at three concentrations (five samples for each concentration). Stability in plasma and tissue homogenate was assessed by testing samples stored at both 4 °C and room temperature for 24 h.

[2] = Metabolic stability in HLMs, UGT reaction (glucuronidation); type: in vitro ADME, human; details: human, human liver microsomes (UGT reaction), pH 7.4, HLMs, UGT reaction
Protocol: (§2) Various microsomes including HLMs, HKMs, HIMs, RLMs, RKMs, MLMs and MKMs were involved in CYP and UGT reactions of N-hydap. A typical CYP incubation mixture included 0.5 mg/mL microsomes protein, 3.3 mM glucose-6-phosphate, 3.3 mM MgCl2, 0.4 U/mL glucose-6-phosphate dehydrogenase, and N-hydap (1, 2.5, or 10 μM) in the 50 mM potassium phosphate buffer (KPI, pH 7.4). The incubation mixture was preincubated at 37 °C for 5 min, and the reaction was started by adding NADP to form a NADPH-regenerating system. Simultaneously, the classic UGT reaction system consisted of 50 mM KPI, 5 mM MgCl2, 0.5 mg/mL microsomes, 0.125 mg/mL alamethicin, and 5.25 mg/mL saccharolactone. The reaction was initiated after supplying UDPGA. The CYP and UGT mixtures were incubated at 37 °C in a shaking water bath (80 rpm) for 1.5 h to enhance metabolite formation. To terminate the reaction, an ice-cold solution of Tes (50 ng/mL, dissolved in methanol and used as an internal standard) was added to half of the mixture volume. The mixture was vortexed for 30 s and then centrifuged at 13,000 rpm for 15 min to eliminate any precipitated protein. The resulting supernatant was transferred to autosampler vials, and 5 μL was injected into the LC–MS system. All reactions were conducted in triplicate.
(§3) The identical concentration of HLMs was utilized for both the CYP reaction and UGT reaction. At predetermined time intervals of 0, 15, 30, and 60 min, 100 µL samples were taken from the reaction volumes. To halt the reaction, 50 µL of 50 ng/mL Tes was added. Samples were analyzed using LC–MS to compare the remaining level of N-hydap between the CYP reaction and UGT reaction. T1/2 and CLint (in vivo) (mL/min/kg) were calculated as reported previously:
(§4) T1/2=0.693/k, where k represents the slope of the line derived from plotting the natural logarithm of the percentage (Ln %) of N-hydap remaining in the reaction mixture against the incubation time (minutes).
(§5) CLintinvivo=0.693/invitroT1/2×mLincubation/mgmicrosomes×45mgmicrosomes/gliver×20gliver/kgbodyweight.

[3] = test system: HLMs (UGT reaction); test: as above; type: in vitro ADME, human; details: for percentage of N-hydap remaining: HLMs, glucuronidation reaction
Protocol: as §2, §3, §4, §5

[4] = Stability in plasma; type: in vitro ADME
Protocol: as §1

CC1CCC2C(C=CC(C)C2C(=O)c2c(O)c(C3(O)CCC(O)C4OC43)cn(O)c2=O)C1 (centres unmarked) [N-hydap, N-Hydroxyapiosporamide]
results of the stability experiments ([1]; KPI solution, plasma and tissue homogenate, all storage conditions): no significant degradation | stability, Accuracy (Bias, %) ([1]; 200 nM, 4℃ for 24h): 113.85% | stability, Accuracy (Bias, %) ([1]; 200 nM, 37℃ for 4h): 87.75% | stability, Accuracy (Bias, %) ([1]; 600 nM, 4℃ for 24h): 105.48% | stability, Accuracy (Bias, %) ([1]; 600 nM, 37℃ for 4h): 85.75% | stability, Accuracy (Bias, %) ([1]; 2500 nM, 4℃ for 24h): 104.40% | stability, Accuracy (Bias, %) ([1]; 2500 nM, 37℃ for 4h): 97.32% | half-life [2]: 2.16 h | CLint scaled ([2]; extrapolated from in vitro T1/2, read-out: CLint (in vivo)): 48.2 mL/min/kg | percentage of N-hydap remaining ([3]; 15 min): 47.84% | percentage of N-hydap remaining ([3]; 30 min): 40.44% | UGT catelyzed, experimental results ([3]; Table 4 experimental column): Yes | Phase II metabolism, experimental results ([3]; Table 4 experimental column, microsomes): Glucuronidation | eliminated by UGTs ([3]; various microsomes, after 1 h): ~70% | stability, Accuracy (Bias, %) ([4]; 200 nM, 4℃ for 24h): 113.9% | stability, Accuracy (Bias, %) ([4]; 200 nM, room temperature for 24h): 101.9% | stability, Accuracy (Bias, %) ([4]; 600 nM, 4℃ for 24h): 87.98% | stability, Accuracy (Bias, %) ([4]; 600 nM, room temperature for 24h): 105.23% | stability, Accuracy (Bias, %) ([4]; 2500 nM, 4℃ for 24h): 91.36% | stability, Accuracy (Bias, %) ([4]; 2500 nM, room temperature for 24h): 108.04%
